Measurements reported in patent US7348025B2, “Small particle liposome aerosols for delivery of anticancer drugs” (priority 1999, dated 2008).
Read-outs that look alike come from different tables or passages of the source.

How the values were obtained:
[1] = Tissue distribution of CPT after inhalation of CPT liposome aerosol; assay type: in vivo, Mouse; details: Mouse, inhaled in liposome aerosol (30 min), 16.2 μg/kg (486 ng/mouse)
Experimental: The final suspension was clear. If precipitation occurred, it was reheated to 50-60° C. The preparation was frozen in liquid nitrogen and lyophilized overnight. For use the material was dissolved in sterile water to the appropriate drug concentration, not exceeding 1.0 mg/ml for either drug. The efficiency of incorporation of drug in the liposomes was examined qualitatively by microscopic examination under polarized light. Unincorporated drug was seen as bi-refringent crystals. The efficiency of incorporation was examined by centrifugation of aqueous suspensions of liposomes on Percoll™ gradients. One-tenth ml of suspension was layered over 2 ml of gradient and centrifuged at 2000 rpm for 25-30 minutes. Liposomes layer at the water-Percoll interface, while unincorporated drug was deposited at the bottom of the tube. Many other lipids may be substituted for DLPC in the formulation and use of liposomes for delivery of drugs by aerosol (26).
The mobile phase was 30% acetonitrile and 70% of 0.1% glacial acetic acid. CPT was detected using the Waters 470 scanning fluorescence detector set to an excitation wavelength of 370 nm and an emission wavelength of 440 nm. […] The data were analyzed with the Waters Millenium software.
The deposited dose was calculated to be 486 ng per mouse. The mean concentrations in lungs and liver were similar with smaller concentrations in the other sites examined. […] Drug was cleared promptly from the lungs so that 15 minutes after stopping nebulization only negligible amounts of drug were present in the lungs. Liver, kidney and spleen had substantial amounts of drug initially which gradually diminished through the one hour of study. […] These studies indicate substantial immediate deposition of drug in the lungs with rapid clearance to the viscera. The amount of drug contributed by absorption from swallowed drug is uncertain.

[2] = tested on: human colon carcinoma xenografts (Squires); experiment: Growth of human colon carcinoma xenografts in nude mice under liposome aerosol; assay type: in vivo
[3] = Phase I clinical trial: 9NC plasma pharmacokinetics; assay type: in vivo, human
Experimental: The purpose of quantitation of 9NC from plasma and bronchoalveolar fluids was to determine systemic absorption from the alveolar-capillary exchange surface. Plasma concentrations of total 9NC and the lactone form were measured. For patients who volunteered for pharmacokinetic studies, blood was obtained at various time pints from the start of the aerosol treatment depending on the cohort. For cohort 1 used in the feasibility study blood was obtained at the end of the first week of treatment. Samples were taken at 0, 0.5, 1, 1.25, 1.5, 2, 3, 5, 7, and 24 hours from the start of the 1-hr aerosol exposure. For all other cohorts, samples were obtained at 0, 2, 5, 8, and 24 hours on days 1 and 5 of weeks 1, 4 and 8 where appropriate. Quantitation was performed either by LC/MS, for cohorts 1 and 2, or by HPLC analysis, for cohorts 3 to 6. 9NC plasma concentrations were calculated from the ratio of 9 NC to CPT as internal standard. Extraction of 9NC and its lactone form was performed using Waters C18 Sep-Pak Light cartridges immediately after separating the plasma by a method similar to that previously described (12). Minimal level of detection of 9NC/ml of plasma was 0.5 ng by LC/MS and 1.0 ng by HPLC.

[4] = Phase I clinical trial: 9NC in bronchoalveolar lavage fluid or bronchial aspirate; assay type: in vivo, human
Experimental: Bronchoscopy was performed by a pulmonologist to obtain either bronchoalveolar lavage (BAL) fluid or bronchial aspirate for quantitation of 9NC. A BAL of the right middle lobe was performed once on volunteering patients at various times after the completion of treatment to study the amount of 9NC retained over time. Concentration of total 9NC in the BAL fluid was corrected for dilution by determining the ration of BUN in the lavage and in a plasma sample taken at the same time (13).

[5] = cited from earlier work; for T1/2: Human; for Blood or plasma concentration / Time of maximum concentration: in vivo, po
[6] = cited from earlier work
[7] = cited from earlier work; remark: listed apart in the source
[8] = human, in vivo, po; cited from earlier work
[9] = cohort 1 (0.26 mg/m^2), plasma, DLPC-9NC aerosol

SMILES: CC[C@@]1(O)C(=O)OCc2c1cc1n(c2=O)Cc2cc3c([N+](=O)[O-])cccc3nc2-1 [9-NC, 9-nitro-camptothecin]
- Blood or plasma concentration [1]: 13.9 ng/mL
- Increase in tumor size, escalated-dose group versus 77 μg/kg group ([2]; 77 then 153 then 307 μg/kg per day versus 77 μg/kg throughout, differences not statistically significant): slightly less increase in tumor size
- Rate of tumor growth versus controls ([2]; day 28, P<0.007, Student t test, 2 tailed): reduced rate of tumor growth
- Emaciation of treated mice ([2]; high dose group (up to 307 μg/kg per day)): suggesting drug toxicity
- Range of peak plasma concentration of total 9NC ([3]; cohort 1 (0.26 mg/m^2), 5 patients, 1-hour DLPC-9NC aerosol, at 2 hr): 13.6 to 58.0 ng/mL
- Mean (±SD) peak plasma concentration of total 9NC ([3]; cohort 1 (0.26 mg/m^2), 5 patients, 1-hour DLPC-9NC aerosol, at 2 hr from start, end of first week): 37.7 ± 20.2 ng/mL
- T1/2α, mean (±SD) [3, 9]: 1.9 ± 1.4 h
- T1/2β, mean (±SD) [3, 9]: 16.4 ± 10.5 h
- Peak plasma levels in women compared with men ([3]; human, in vivo): higher
- Time for which total 9NC plasma concentrations continued to increase ([3]; human, in vivo): 2 to 3 h
- 9NC in plasma taken at the same time as BAL ([4]; Subject 1, cycle 1, day 3, 2.1 hr from start of aerosol): 43.2 ng/mL
- 9NC in BAL fluid ([4]; Subject 1, cycle 1, day 3, 2.1 hr from start of aerosol, cohort 1, 0.26 mg/m^2): 8.2 ng/mL
- 9NC in plasma taken at the same time as BAL ([4]; Subject 3, cycle 4, day 3, 4.8 hr from start of aerosol): 10.8 ng/mL
- 9NC in BAL fluid ([4]; Subject 3, cycle 4, day 3, 4.8 hr from start of aerosol, cohort 1, 0.26 mg/m^2): 4.3 ng/mL
- 9NC in plasma taken at the same time as BAL ([4]; Subject 4, cycle 2, day 4, 3.5 hr from start of aerosol): 34.2 ng/mL
- 9NC in BAL fluid ([4]; Subject 4, cycle 2, day 4, 3.5 hr from start of aerosol, cohort 1, 0.26 mg/m^2): 25.8 ng/mL
- 9NC in plasma taken at the same time as the aspirate ([4]; Subject 6, cycle 1, day 4, 1.2 hr from start of aerosol): 36.2 ng/mL
- 9NC in lung aspirate ([4]; Subject 6, cycle 1, day 4, 1.2 hr from start of aerosol, cohort 1, 0.26 mg/m^2): 60.7 ng/mL
- T1/2 ([5]; single oral dose 0.1 mg/kg (7 mg/dose)): (T1/2 = 2.5 h)
- T1/2 ([5]; single oral dose 1.0 mg/kg (70 mg/dose)): (T1/2 = 4.9 h)
- Blood or plasma concentration ([5]; 0.1 mg/kg): 483 ng/mL
- Time of maximum concentration ([5]; 0.1 mg/kg): 3.4 h
- Blood or plasma concentration ([5]; 1 mg/kg): 1247 ng/mL
- Time of maximum concentration ([5]; 1 mg/kg): 5.3 h
- T1/2 ([6]; Dog, single oral dose 1.0 mg/kg (10 mg/dose)): (T1/2 = 6.4 h)
- Blood or plasma concentration ([6]; dog, in vivo, po, 1 mg/kg): 19.1 ng/mL
- Time of maximum concentration ([6]; dog, in vivo, po, 1 mg/kg): 0.7 h
- T1/2 ([7]; Mouse, single oral dose 4.1 mg/kg (0.124 mg/dose)): (T1/2 = 10 h)
- Blood or plasma concentration ([7]; mouse, in vivo, po, 4.1 mg/kg): 732 ng/mL
- Time of maximum concentration ([7]; mouse, in vivo, po, 4.1 mg/kg): 6 min
- Another side effect [8]: chemical cystitis with hematuria
- Main toxicity profile [8]: hematologic with anemia and neutropenia and gastrointestinal with nausea, vomiting and anorexia
